These results are taken from ChEMBL document CHEMBL3352161, “Phorbaketals L-N, cytotoxic sesterterpenoids isolated from the marine sponge of the genus Phorbas” (Bioorg Med Chem Lett, 2014).

Assay type in all cases: functional, cell-based
For one assay, the system named is A498. Put plainly: Cytotoxicity against human A498 cells after 72 hrs by MTT assay. Particulars: A498, 72 h. For orientation: Formazan colour is commonly taken as a measure of viable cells.
The nature of assay [1]: Cytotoxicity against human PANC1 cells after 72 hrs by MTT assay. As to conditions: PANC-1, 72 h.
For a further assay, the system named is ACHN. In words: Cytotoxicity against human ACHN cells after 72 hrs by MTT assay.

Usually IC50 stands for the concentration at which inhibition is half-maximal. Low values mean greater potency in that assay, high ones weaker potency in that assay. Turning to `C=C(CCC=C(C)C)[C@H](O)[C@@H]1CC(C)=C[C@]2(C=C(CO)[C@H]3CC(=O)C(C)=C[C@H]3O2)O1`, the IC50 in the assay with A498 is 17.3 µM; in assay [1], 50 µM; in the assay with ACHN, more than 50 µM.
In the case of `C=C(C)[C@@H](CC/C(C)=C/[C@@H]1CC(C)=C[C@]2(C=C(CO)[C@H]3CC(=O)C(C)=C[C@H]3O2)O1)OO`, the IC50 (in the assay with A498; in assay [1]; with ACHN) was more than 50 µM in each case.
With `C=C(CCC1OC1(C)C)[C@H](Br)[C@@H]1CC(C)=C[C@]2(C=C(CO)[C@H]3CC(=O)C(C)=C[C@H]3O2)O1` (stereo not given in full), the half-inhibitory concentration (IC50) in the assay with A498 was determined as 18.7 µM; in assay [1] it was 11.4 µM; in the assay with ACHN, 24.4 µM.
`CC(C)=CCC/C(C)=C/[C@@H]1CC(C)=C[C@]2(C=C(CO)[C@H]3CC(=O)C(C)=C[C@H]3O2)O1`: the IC50 in the assay on A498 amounted to 4.4 µM; in assay [1], 13.5 µM; in the assay with ACHN, 3 µM.
In the case of `O=c1[nH]cc(F)c(=O)[nH]1` [FLUOROURACIL], in assay [1], the IC50 came to 50 µM.
Take `CCN(CC)CCNC(=O)c1c(C)[nH]c(/C=C2\C(=O)Nc3ccc(F)cc32)c1C` [SUNITINIB MALATE]: it took 2 µM to reach half-maximal inhibition in the assay on ACHN (IC50).
Turning to `CO[C@H]1C[C@@H]2CC[C@@H](C)[C@@](O)(O2)C(=O)C(=O)N2CCCC[C@H]2C(=O)O[C@H]([C@H](C)C[C@@H]2CC[C@@H](OC(=O)C(C)(CO)CO)[C@H](OC)C2)CC(=O)[C@H](C)/C=C(\C)[C@@H](O)[C@@H](OC)C(=O)[C@H](C)C[C@H](C)/C=C/C=C/C=C/1C` [TEMSIROLIMUS], the IC50 in the assay with A498 stood at 0.35 µM.
